The record followed here is patent publication US8822468B2 (Novartis AG, priority 2008, dated 2014).

The target in the assay is T1, cMET receptor tyrosine kinase (GST-cMET (969-1390)) (Homo sapiens, UniProt P08581).
T1 construct: made in house
T1 sequence (P08581 969-1390): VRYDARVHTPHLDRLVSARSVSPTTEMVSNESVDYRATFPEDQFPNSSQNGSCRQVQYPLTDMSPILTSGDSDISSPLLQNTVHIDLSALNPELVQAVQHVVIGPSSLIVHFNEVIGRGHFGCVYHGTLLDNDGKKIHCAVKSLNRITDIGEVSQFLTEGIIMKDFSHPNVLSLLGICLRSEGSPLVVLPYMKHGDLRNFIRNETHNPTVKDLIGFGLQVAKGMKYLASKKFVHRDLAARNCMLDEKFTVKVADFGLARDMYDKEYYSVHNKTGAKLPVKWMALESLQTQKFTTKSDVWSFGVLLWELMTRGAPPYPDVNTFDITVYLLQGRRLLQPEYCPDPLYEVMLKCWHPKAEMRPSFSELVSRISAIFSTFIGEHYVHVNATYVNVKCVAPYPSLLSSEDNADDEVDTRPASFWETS
The assay is described as follows: EPK cMET profiling assay (LanthaScreen TR-FRET antibody based kinase phosphorylation assay). In kind it is biochemical. The settings on record: purified recombinant GST-cMET (969-1390), 2 μM ATP, 50 nM Fluorescein-PolyEAY, 60 minutes at room temperature; read-out: c-Met IC50. The procedure: A number of compounds of the present invention were assayed in an antibody based kinase phosphorylation assay as follows.
EPK cMET Profiling Assay:
The EPK kinase assay for cMET receptor tyrosine kinase was developed, using the purified recombinant GST-fusion protein, containing the cytoplasmic domain of the enzyme. GST-cMET (969-1390) was purified by affinity chromatography.
The kinase assay is based on the LanthaScreen™ technology. LanthaScreen™ is the detection of Time-Resolved Fluorescence Resonance Energy Transfer (TR-FRET) using lanthanide chelates to measure interactions between various binding partners. In a TR-FRET kinase assay, a long-lifetime lanthanide donor species is conjugated to an antibody that specifically binds to a phosphorylated product of a kinase reaction that is labeled with a suitable acceptor fluorophore. This antibody-mediated interaction brings the lanthanide donor and the acceptor into proximity such that resonance energy transfer can take place, resulting in a detectible increase in the FRET signal.
The kinase reactions were performed in 384 well microtiter plates in a total reaction volume of 9.05 μL. The assay plates were prepared with 0.05 μL per well of test compound in the appropriate test concentration, as described under “preparation of compound dilutions”. The reactions were started by combining 4.5 μL of ATP solution with 4.5 μL of enzyme-substrate mix (consisting of kinase and substrate). The final concentrations in the kinase reactions were 35 mM Tris/HCl, 1 mM DTT, 0.025% Tween20, 10 μM sodium orthovanadate, 0.25% BSA, 0.6% DMSO, 10 mM MgCl2, 3 mM MnCl2, 2 μM ATP, 50 nM Fluorescein-PolyEAY, and 0.3 nM enzyme.
The reactions were incubated for 60 minutes at room temperature and stopped by adding 4.5 μL of stop buffer (50 mM EDTA, 0.04% NP40, 20 mM Tris/HCl).
Subsequently 4.5 μL of detection mix (50 mM Tris/HCl, 2 mM DTT, 0.05% Tween20, 20 μM sodium orthovanadate, 1% BSA, 1.72 μg/ml Tb-PY20 antibody) were added to the stopped reactions. After 30 minutes incubation at room temperature, the plates were measured in a BMG Pherastar fluorescence reader. The effect of compound on the enzymatic activity was in all assays obtained from the linear progress curves and determined from one reading (end point measurement).
Test compounds were dissolved in DMSO (10 mM) and transferred into 1.4 mL flat bottom or V-shaped Matrix tubes carrying a unique 2D matrix. The stock solutions were stored at −20° C. if not used immediately. For the test procedure the vials were defrosted and identified by a scanner whereby a working sheet was generated that guided the subsequent working steps.
Compound dilutions were made in 96 well plates. This format enabled the assay of maximally 40 individual test compounds at 8 concentrations (single points) including 4 reference compounds. The dilution protocol included the production of “pre-dilution plates”, “master plates” and “assay plates”.
Pre-dilution plates: 96 polypropylene well plates were used as pre-dilution plates. A total of 4 pre-dilution plates were prepared including 10 test compounds each on the plate positions A1-A10, one standard compound at A11 and one DMSO control at A12. All dilution steps were done on a HamiltonSTAR robot.
Master plates: 100 μL of individual compound dilutions including standard compound and controls of the 4 “pre-dilution plates” were transferred into a 384 “master plate” including the following concentrations 1,820, […], 182, 54.6, 18.2, 5.46, 1.82 and 0.546 μM, respectively in 90% of DMSO.
Assay plates: Identical “assay plates” were then prepared by pipetting 50 nL each of compound dilutions of the “master plates” into 384-well “assay plates” by means of a HummingBird 384-channel dispenser. These plates were used directly for the assay which was performed in a total volume of 9.05 μL. This led to a final compound concentration of 10, 3.0, 1.0, 0.3, 0.1, 0.03, 0.01 and 0.003 μM and a final DMSO concentration of 0.5% in the assay.
(In general: Time-resolved FRET reads energy transfer from a long-lived donor to a nearby acceptor.)
On to `Cc1cccc(-c2ccc3ncc(C(C)c4ccc5nccn5c4)n3n2)c1` (racemic) [Example 308, (rac)-3-(1-Imidazo[1,2-a]pyridin-6-yl-ethyl)-6-m-tolyl-imidazo[1,2-b]pyridazine], for which the IC50 (as a rule, the concentration that inhibits the measured activity by half) is 82 nM. The result for `CC(c1ccc2ncc(Br)n2c1)c1cnc2ccc(-c3cnn(C)c3)nn12` (racemic) [Example 309, (rac)-3-[1-(3-Bromo-imidazo[1,2-a]pyridin-6-yl)-ethyl]-6-(1-methyl-1H-pyrazol-4-yl)imidazo[1,2-b]pyridazine] reads 16 nM. The result for `CC(c1ccc2ncc(Br)n2c1)c1cnc2ccc(-c3cnn(CCO)c3)nn12` (racemic) [Example 310, (rac)-2-(4-{3-[1-(3-Bromo-imidazo[1,2-a]pyridin-6-yl)-ethyl]-imidazo[1,2-b]pyridazin-6-yl}-pyrazol-1-yl)-ethanol] reads 10 nM; that for `Cn1cc(-c2ccc3ncc(Cc4ccc5ncccc5c4)n3n2)cn1` [Example 2, 6-[6-(1-Methyl-1H-pyrazol-4-yl)-imidazo[1,2-b]pyridazin-3-ylmethyl]-quinoline], 14 nM. The result for `COc1ccc(Cc2cnc3ccc(-c4cnn(C)c4)nn23)cc1` [Example 4, 3-(4-methoxy-benzyl)-6-(1-methyl-1H-pyrazol-4-yl)-imidazo[1,2-b]pyridazine] reads 280 nM.

With `Cn1cc(-c2ccc3ncc(Cc4ccc(O)cc4)n3n2)cn1` [Example 5, 4-[6-(1-Methyl-1H-pyrazol-4-yl)-imidazo[1,2-b]pyridazin-3-ylmethyl]-phenol], the IC50 stood at 53 nM.

Turning to `Cn1cc(-c2ccc3ncc(C(F)(F)c4ccc5ncccc5c4)n3n2)cn1` [Example 6, 6-{Difluoro-[6-(1-methyl-1H-pyrazol-4-yl)-imidazo[1,2-b]pyridazin-3-yl]-methyl}-quinoline], the half-inhibitory concentration (IC50) was 14 nM. `c1cnc2ccc(Cc3cnc4ccc(-c5cnn(C6CCNCC6)c5)nn34)cc2c1` [Example 7, 6-[6-(1-piperidin-4-yl-1H-pyrazol-4-yl)-imidazo[1,2-b]pyridazin-3-ylmethyl]-quinoline]: the IC50 was 50 nM. With `Cn1cc(-c2ccc3ncc(Cc4ccc5occc5c4)n3n2)cn1` [Example 8, 3-Benzofuran-5-ylmethyl-6-(1-methyl-1H-pyrazol-4-yl)-imidazo[1,2-b]pyridazine], the IC50 was found to be 270 nM.

For the molecule `Cn1cc(-c2ccc3ncc(Cc4ccc5nccn5c4)n3n2)cn1` [Example 10, 3-Imidazo[1,2-a]pyridin-6-ylmethyl-6-(1-methyl-1H-pyrazol-4-yl)-imidazo[1,2-b]pyridazine], the concentration for half-maximal inhibition (IC50) is 21.5 nM.

For `Cn1cc(-c2ccc3ncc(Cc4ccc5ncsc5c4)n3n2)cn1` [Example 12, 3-Benzothiazol-6-ylmethyl-6-(1-methyl-1H-pyrazol-4-yl)-imidazo[1,2-b]pyridazine], the half-maximal inhibitory concentration (IC50) came out at 32.5 nM. Next, `Cc1nc2ccc(Cc3cnc4ccc(-c5cnn(C)c5)nn34)cc2s1` [Example 13, 3-(2-Methyl-benzothiazol-6-ylmethyl)-6-(1-methyl-1H-pyrazol-4-yl)-imidazo[1,2-b]pyridazine]: 73.5 nM; `NC(=O)c1ccc(-c2ccc3ncc(Cc4ccc5ncccc5c4)n3n2)cc1Cl` [Example 15, 2-Chloro-4-(3-quinolin-6-ylmethyl-imidazo[1,2-b]pyridazin-6-yl)-benzamide]: 9.5 nM; `Cc1ccc(-c2ccc3ncc(Cc4ccc5ncccc5c4)n3n2)cc1` [Example 16, 6-(6-p-Tolyl-imidazo[1,2-b]pyridazin-3-ylmethyl)-quinoline]: 94.5 nM.

As to `c1ccc2cc(-c3ccc4ncc(Cc5ccc6ncccc6c5)n4n3)ccc2c1` [Example 17, 6-(6-Naphthalen-2-yl-imidazo[1,2-b]pyridazin-3-ylmethyl)-quinoline], the IC50 worked out at 210 nM. For `FC(F)(F)c1cccc(-c2ccc3ncc(Cc4ccc5ncccc5c4)n3n2)c1` [Example 18, 6-[6-(3-Trifluoromethyl-phenyl)-imidazo[1,2-b]pyridazin-3-ylmethyl]-quinoline], the IC50 stood at 65.5 nM. In the case of `Brc1ccc(-c2ccc3ncc(Cc4ccc5ncccc5c4)n3n2)cc1` [Example 19, 6-[6-(4-Bromo-phenyl)-imidazo[1,2-b]pyridazin-3-ylmethyl]-quinoline], the IC50 is 215 nM. The result for `Nc1cccc(-c2ccc3ncc(Cc4ccc5ncccc5c4)n3n2)c1` [Example 20, 3-(3-Quinolin-6-ylmethyl-imidazo[1,2-b]pyridazin-6-yl)-phenylamine] reads 60 nM. `CC(=O)c1ccc(-c2ccc3ncc(Cc4ccc5ncccc5c4)n3n2)cc1` [Example 21, 1-[4-(3-Quinolin-6-ylmethyl-imidazo[1,2-b]pyridazin-6-yl)-phenyl]-ethanone]: the IC50 is 27.5 nM. In the case of `O=[N+]([O-])c1cccc(-c2ccc3ncc(Cc4ccc5ncccc5c4)n3n2)c1` [Example 22, 6-[6-(3-Nitro-phenyl)-imidazo[1,2-b]pyridazin-3-ylmethyl]-quinoline], the IC50 turned out to be 7.4 nM. `CSc1ccc(-c2ccc3ncc(Cc4ccc5ncccc5c4)n3n2)cc1` [Example 23, 6-[6-(4-Methylsulfanyl-phenyl)-imidazo[1,2-b]pyridazin-3-ylmethyl]-quinoline]: the IC50 was found to be 125 nM. The result for `O=Cc1cccc(-c2ccc3ncc(Cc4ccc5ncccc5c4)n3n2)c1` [Example 24, 3-(3-Quinolin-6-ylmethyl-imidazo[1,2-b]pyridazin-6-yl)-benzaldehyde] reads 23.5 nM; that for `Fc1ccc(-c2ccc3ncc(Cc4ccc5ncccc5c4)n3n2)cc1` [Example 25, 6-[6-(4-Fluoro-phenyl)-imidazo[1,2-b]pyridazin-3-ylmethyl]-quinoline], 48 nM; that for `N#Cc1cccc(-c2ccc3ncc(Cc4ccc5ncccc5c4)n3n2)c1` [Example 26, 3-(3-Quinolin-6-ylmethyl-imidazo[1,2-b]pyridazin-6-yl)-benzonitrile], 20 nM. Consider `Clc1ccc(-c2ccc3ncc(Cc4ccc5ncccc5c4)n3n2)cc1` [Example 27, 6-[6-(4-Chloro-phenyl)-imidazo[1,2-b]pyridazin-3-ylmethyl]-quinoline], for which the IC50 was found to be 110 nM. Take `CC(=O)Nc1cccc(-c2ccc3ncc(Cc4ccc5ncccc5c4)n3n2)c1` [Example 28, N-[3-(3-Quinolin-6-ylmethyl-imidazo[1,2-b]pyridazin-6-yl)-phenyl]-acetamide]: the IC50 was found to be 240 nM. `c1cncc(-c2ccc3ncc(Cc4ccc5ncccc5c4)n3n2)c1` [Example 29, 6-(6-Pyridin-3-yl-imidazo[1,2-b]pyridazin-3-ylmethyl)-quinoline]: the IC50 worked out at 40 nM. Next, `c1ccc(-c2ccc3ncc(Cc4ccc5ncccc5c4)n3n2)cc1` [Example 30, 6-(6-Phenyl-imidazo[1,2-b]pyridazin-3-ylmethyl)-quinoline]: 91 nM.

Regarding `c1cnc2ccc(Cc3cnc4ccc(-c5cc6ccccc6o5)nn34)cc2c1` [Example 31, 6-(6-Benzofuran-2-yl-imidazo[1,2-b]pyridazin-3-ylmethyl)-quinoline], the IC50 is 230 nM.

As to `FC(F)(F)c1ccc(-c2ccc3ncc(Cc4ccc5ncccc5c4)n3n2)cc1` [Example 33, 6-[6-(4-Trifluoromethyl-phenyl)-imidazo[1,2-b]pyridazin-3-ylmethyl]-quinoline], the IC50 stood at 370 nM. `c1ccc(-c2cc(-c3ccc4ncc(Cc5ccc6ncccc6c5)n4n3)on2)cc1` [Example 34, 6-[6-(3-Phenyl-isoxazol-5-yl)-imidazo[1,2-b]pyridazin-3-ylmethyl]-quinoline]: the half-maximal inhibitory concentration (IC50) came out at 230 nM.
